# Molecular target: T1, Rtt109–Vps75 (Saccharomyces cerevisiae, UniProt Q07794)
# T1 sequence (Q07794 1-436): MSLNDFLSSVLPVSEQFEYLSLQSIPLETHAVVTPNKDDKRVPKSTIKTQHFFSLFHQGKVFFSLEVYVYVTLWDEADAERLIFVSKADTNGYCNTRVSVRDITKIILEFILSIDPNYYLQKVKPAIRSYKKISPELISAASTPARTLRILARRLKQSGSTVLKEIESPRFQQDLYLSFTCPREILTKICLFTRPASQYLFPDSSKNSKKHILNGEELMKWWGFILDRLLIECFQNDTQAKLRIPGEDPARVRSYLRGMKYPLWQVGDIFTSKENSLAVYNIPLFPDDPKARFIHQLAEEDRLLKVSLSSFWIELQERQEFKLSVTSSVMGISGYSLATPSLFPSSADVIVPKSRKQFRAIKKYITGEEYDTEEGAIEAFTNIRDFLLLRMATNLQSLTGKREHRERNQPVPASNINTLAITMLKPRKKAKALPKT
# T1 sequence (P53853 1-264 partner): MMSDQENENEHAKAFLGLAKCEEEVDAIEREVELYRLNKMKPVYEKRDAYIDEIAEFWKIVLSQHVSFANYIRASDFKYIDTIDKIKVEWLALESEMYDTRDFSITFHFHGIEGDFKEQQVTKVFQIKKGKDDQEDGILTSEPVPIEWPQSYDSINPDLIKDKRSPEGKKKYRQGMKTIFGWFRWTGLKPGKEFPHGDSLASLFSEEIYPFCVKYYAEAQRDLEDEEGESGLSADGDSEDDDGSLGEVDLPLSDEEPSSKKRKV
# Test: in vitro [3H]-acetyl-CoA HAT assay, Rtt109–Vps75
# Assay type: biochemical, yeast
# Conditions: radiolabeled HAT assay; p = 0.61, n = 3 for 1a
smiles,measurement,value
"CCN(CC)c1ccc2c(C)c(-c3ccc(N4C(=O)C=CC4=O)cc3)c(=O)oc2c1 [CPM, N-[4-(7-diethylamino-4-methylcoumarin-3-yl)phenyl]maleimide]",difference in IC50 values in presence or absence of DTT and BSA,significant decrease in IC50
